Test results as given in patent US8987211B2, “Therapeutic peptides and use thereof against huntington's disease” (Centre National de la Recherche Scientifique (CNRS), priority 2011, dated 2015).
“Also recorded” adds a separate entry of the source. No end group written: not given here.

B1: QQLFRTPPPELLQTLTAVGGIGQLTAAKEESGGRSRSGSIVELIAGGG SSCSPVLSRKQKGKVLLGEEEALEDDSESRSDVSSSALTASVKDEISGELAAS SGVSTPGSAGHDIITEQPRSQHTLQADSVDLASCDLTSSATDGDEEDILSHSSS QVSAVPSDPAM (protein)
chain: QQLFRTPPPELLQTLTAVGGIGQLTAAKEESGGRSRSGSIVELIAGGGSSCSPVLSRKQKGKVLLGEEEALEDDSESRSDVSSSALTASVKDEISGELAASSGVSTPGSAGHDIITEQPRSQHTLQADSVDLASCDLTSSATDGDEEDILSHSSSQVSAVPSDPAM
modifications: Pep4

How the values were obtained:
[1] = test system: hHtt548aa-128Q protein; test: Axonal vesicular transport by real-time microscopy in larva motor neurons; type: in vivo, Drosophila; conditions: segments A3 to A4
Experimental: (§1) To test the effect of polyQ-hHtt on axonal transport, the fate of vesicles expressing Neuropeptide Y (NPY) labelled with GFP (NPY-GFP) was monitored, either after dissection and fixation of the larvae, or by real-time microscopy in order to monitor vesicular transport in the motor neurons.
For this examination, OK6-Gal4; UAS-NPY-GFP larvae were anaesthetised with ether for 2 minutes and positioned with the ventral side upwards between slide and slip cover in polymerised 1% agarose, for direct visualisation using fluorescence microscopy with a 63× objective, to monitor the movement of the vesicles between segments A3 and A4. A film of 100 photographs is taken every 280 ms. For each film, 20 vesicles were analysed with Image J (manual vesicle tracking plugin developed by F. Cordelières, Institut Curie, Orsay, France). Vesicles with an instantaneous speed of less than 0.01 μm/s are defined as having paused. The mean speed is calculated as being the total distance traveled irrespective of the vesicle direction (anterograde or retrograde) divided by the total estimated time during which the vesicle is monitored. While expression of the hHtt^548aa-128Q protein leads to an increase in the pause time of vesicles and reduces their speed, the presence of pep42 rescues both the vesicle pause time and speed.

[2] = test system: UAS-SCA1-polyQ or UAS-SCA3-polyQ; test: Eye degeneration in flies expressing other polyQ disease genes; type: in vivo, Drosophila
Experimental: (§2) The eye depigmentation and degeneration phenotypes are analysed in 10-day old females expressing either UAS-hHtt^67aa-98Q or UAS-hHtt^548aa-128Q controlled by the gmr-Gal4 driver, after transfer at 29° C. from the embryogenesis stage (see FIG. 6b, to be compared with the wild flies shown on FIG. 6a). Flies expressing other genes involved in polyQ diseases (UAS-SCA1-polyQ or UAS-SCA3-polyQ) were also analysed (FIG. 6d).

[3] = test system: UAS-hHtt67aa-98Q or UAS-hHtt548aa-128Q; test: Eye depigmentation and degeneration in flies expressing polyQ-hHtt (gmr-Gal4); type: in vivo, Drosophila; conditions: 10-day old females, 29° C., polyQ-hHtt (67aa or 548aa)
Experimental: as §2

[4] = test system: OK6-Gal4; UAS-NPY-GFP; UAS-hHtt548aa-128Q larvae; test: Larval locomotion; type: in vivo, Drosophila; conditions: larvae expressing hHtt548aa-128Q
[5] = test system: GFP-hHtt171aa-136Q; test: Co-immunoprecipitation in cotransfected HeLa cells; type: binding, human; conditions: Cherry-pep42, anti-GFP immunoprecipitation, anti-cherry western blot
Experimental: (§3) This assumption was tested by co-immunoprecipitation experiments using HeLa cells cotransfected by GFP-hHtt^171aa-136Q or by GFP-P1 (corresponding to the first 98 aa with no polyQ domain), in the presence of Cherry-pep42. A G/A-agarose protein resin binding an anti-GFP was used to immunoprecipitate the GFP-hHtt^171aa-136Q protein or the GFP-P1 peptide and to co-immunoprecipitate the Cherry-pep42, visualised by an anti-cherry by western blot.

[6] = test system: GFP-P1 (first 98 aa with no polyQ domain); test: Co-immunoprecipitation in cotransfected HeLa cells; type: binding, human; conditions: Cherry-pep42, GFP-P1, anti-GFP immunoprecipitation
Experimental: as §3

[7] = test system: HA-hHtt171aa-136Q protein; test: polyQ-hHtt aggregation in Drosophila salivary glands (MS1096-Gal4 driver, immunolabelling); type: in vivo; conditions: third instar larvae, anti-HA immunolabel
Description: The pep4 and pep42 peptides identified as inhibitors of polyQ-hHtt aggregation in HeLa cells were cloned using the Gateway technique in Drosophila pUASt expression vectors, allowing the expression of N-terminal 6Myc- or GFP-tagged peptides.
Transgenic flies expressing these peptides were constructed by injecting vectors in Drosophila embryos. The UAS/Gal4 system (Brand and Perrimon, Development 1993) was used to express these peptides at specific times and in specific tissues, in the presence of an HA- (hemagglutinin) tagged UAS-polyQ-hHtt vector.
The MS1096-Gal4 driver was used to express the HA-hHtt^171aa-136Q protein (detected by an anti-HA antibody) in the salivary glands, in the absence or presence of the GFP-pep42 peptide. […] Salivary glands from dissected third instar larvae were immunolabelled. The glands are fixed for 20 minutes in PBS with 3.7% paraformaldehyde (PFA) and 0.1% Triton then washed in PBS/0.1% Triton. The glands were incubated with the antibodies (anti-HA, then Cy3 conjugate antibody) with 1% BSA.

[8] = test system: hHtt548aa-128Q protein; test: Axonal transport, fixed larvae (OK6-Gal4; UAS-NPY-GFP); type: in vivo, Drosophila
Experimental: as §1
The nervous system of OK6-Gal4 larvae which express vesicles containing NPY-GFP (OK6-Gal4; UAS-NPY-GFP) was dissected and fixed as previously in 3.7% PFA. Incubations with the antibodies and washing are carried out in PBS, 0.3% Triton. Expression of normal Htt^548aa-0Q has no effect on the vesicles which remain numerous and evenly distributed along the axon. Normal Htt, detected by an anti-Htt HU-4C8 antibody (Chemicon, 1:750), lies along the axon and cannot be detected at the neuromuscular junctions (NMJs). Expression of the hHtt^548aa-128Q protein leads to the formation of aggregates along the axons and to abnormal accumulation of the protein at the NMJs. We observe a decrease in the total number of vesicles and their accumulation, especially at the aggregates. In all cases, the vesicles reach the NMJs.

[9] = test system: GFP-hHtt171aa-136Q aggregates; test: Quantification of aggregates by filtration, HeLa cells; type: cell-based, human; conditions: cellulose acetate membrane, anti-GFP, FIG. 5B
Experimental: Protein extracts were obtained according to (Sittler et al., Mol Cell. 1998) with the following modifications: after transfection, the cell pellets are treated with DNase and resuspended in 150 μl 1% SDS and 50 mM DTT in PBS. The samples are boiled for 5 minutes. Two 150 μL aliquots corresponding to independent experiments were filtered together and each point was reproduced 3 times.
The samples were filtered on a cellulose acetate membrane ([…], Schleicher and Schuell) using a Biorad Dot-blot apparatus. The membranes were then subjected to immunodetection with an antibody, either anti-GFP polyclonal for the HeLa cells (Invitrogen, 1:5000) or anti-HA polyclonal for the salivary glands (SC805, Santa-Cruz, 1:200) in order to visualise the aggregates The aggregates are then detected using a secondary anti-rabbit antibody coupled with HRP (horseradish peroxidase, Jackson 1:50 000). The immunoreagent spots are detected with an […] substrate (ECL, Roche) and the quantifications carried out using Image J (see FIG. 5B).

[10] = test system: polyQ-hHtt; test: Viability and survival of adult flies affected by polyQ-hHtt; type: in vivo, Drosophila; conditions: summary statement, no example
[11] = test system: GFP-hHtt171aa-136Q (GFP-polyQ-hHtt protein); test: Cotransfection in HeLa cells, polyQ-hHtt aggregation visualised by anti-GFP immunodetection; type: cell-based, human; conditions: cotransfection of equivalent quantities of vectors, Myc- or Cherry-tagged peptide
Experimental: Various peptides contained in the 548aa of the human Huntingtin N-terminal fragment have been cloned by Gateway in expression vectors in pcDNA type cultured HeLa cells. Each peptide was tagged either by Myc or by Cherry at its N-terminal end. These various peptides were tested by cotransfection in HeLa cells in the presence of a pcDNA vector expressing a GFP-polyQ-hHtt protein (see FIG. 5). In these experiments, the polyQ-hHtt protein tested corresponded to an hHtt protein covering 171 aa and containing an extended polyQ with a GFP tag at its N-ter end (GFP-hHtt^171aa-136Q). The HeLa cells were cultured in 6-well boxes and transfected by 1.5 μg of total DNA, using JetPei (Qbiogene) reagent. Equivalent quantities of expression vectors (polyQ protein and peptides) are used for the cotransfections. When necessary, pBluescript is used to balance the quantity of DNA. Aggregation of GFP-hHtt^171aa-136Q is visualised by immunodetection with an anti-GFP antibody (see FIG. 5). This protein forms cytoplasmic aggregates (see FIG. 5A).

[12] = test system: polyQ-hHtt protein, N17 region (the first 17 aa); test: Interference with nucleation step of polyQ-hHtt aggregation; set-up: species or system human; conditions: summary statement, no example
[13] = molecular target: T1, first 17 amino acids before the polyQ domain of the human Htt protein (Homo sapiens, UniProt P42858); test: Co-immunoprecipitation with first 17 amino acids of Htt; type: binding
T1 construct: using the first 17 amino acids before the polyQ domain of the human Htt protein; expressed in transfected cells; host or cells: HeLa cells (inferred from 'the same experiments')
Experimental: as §3

[14] = test system: GFP-polyQ-hHtt (Q136); test: Activity in HeLa cells, aggregate percentage by GFP signal; type: cell-based, human; conditions: increasing quantity of synthetic peptide added to the culture medium, FIG. 7c
Description: HeLa cells are transfected with: • 1—GFP-polyQ-hHtt (Q136), • 2—GFP-polyQ-hHtt co-transfected with a vector expressing Pep42-TAT, or • 3—GFP-polyQ-hHtt in the presence of an increasing quantity of Pep42-TAT synthetic peptide added to the culture medium.
FIG. 7c corresponds to the aggregate percentage identified by the GFP signal related to the polyQ-hHtt chain, in the presence of an increasing quantity of fusion peptide.

Chain of GFP-hHtt171aa-136Q (GFP-polyQ-hHtt protein) (P42858 with tags, fused parts or gaps limits assumed): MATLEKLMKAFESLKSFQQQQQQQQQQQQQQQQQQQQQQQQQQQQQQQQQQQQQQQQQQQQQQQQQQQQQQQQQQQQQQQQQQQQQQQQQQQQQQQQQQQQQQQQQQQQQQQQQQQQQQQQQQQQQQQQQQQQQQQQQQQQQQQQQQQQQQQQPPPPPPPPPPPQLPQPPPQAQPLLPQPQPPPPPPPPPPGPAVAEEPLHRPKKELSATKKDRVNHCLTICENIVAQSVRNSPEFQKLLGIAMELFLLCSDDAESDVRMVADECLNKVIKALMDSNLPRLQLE
Chain of hHtt548aa-128Q protein (P42858 with tags, fused parts or gaps limits assumed): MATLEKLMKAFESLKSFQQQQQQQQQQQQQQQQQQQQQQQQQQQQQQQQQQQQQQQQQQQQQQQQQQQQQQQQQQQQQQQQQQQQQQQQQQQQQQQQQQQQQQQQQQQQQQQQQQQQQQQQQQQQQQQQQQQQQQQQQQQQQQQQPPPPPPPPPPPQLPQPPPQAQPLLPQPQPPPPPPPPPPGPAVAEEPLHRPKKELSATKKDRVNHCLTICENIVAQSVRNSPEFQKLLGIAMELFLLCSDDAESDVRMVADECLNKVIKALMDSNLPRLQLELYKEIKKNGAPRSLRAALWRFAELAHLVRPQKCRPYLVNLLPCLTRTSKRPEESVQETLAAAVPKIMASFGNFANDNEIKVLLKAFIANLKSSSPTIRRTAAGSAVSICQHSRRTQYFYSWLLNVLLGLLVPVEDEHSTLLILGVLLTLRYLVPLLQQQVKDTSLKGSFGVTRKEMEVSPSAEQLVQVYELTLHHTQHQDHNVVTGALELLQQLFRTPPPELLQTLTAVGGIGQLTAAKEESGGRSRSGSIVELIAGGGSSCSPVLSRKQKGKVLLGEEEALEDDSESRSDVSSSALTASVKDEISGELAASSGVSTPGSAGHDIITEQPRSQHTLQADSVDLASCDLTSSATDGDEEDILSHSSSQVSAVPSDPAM
Chain of GFP-hHtt171aa-136Q aggregates (P42858 with tags, fused parts or gaps limits assumed): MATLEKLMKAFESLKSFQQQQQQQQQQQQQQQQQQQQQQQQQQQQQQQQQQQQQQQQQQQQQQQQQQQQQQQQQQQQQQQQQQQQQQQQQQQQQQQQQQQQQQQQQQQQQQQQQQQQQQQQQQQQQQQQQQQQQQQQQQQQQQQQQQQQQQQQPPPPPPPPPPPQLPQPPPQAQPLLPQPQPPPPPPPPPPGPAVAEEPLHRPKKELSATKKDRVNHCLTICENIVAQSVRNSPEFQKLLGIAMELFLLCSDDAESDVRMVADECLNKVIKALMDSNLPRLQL
Chain of GFP-P1 (first 98 aa with no polyQ domain) (P42858 with tags, fused parts or gaps DEL18-38 limits assumed): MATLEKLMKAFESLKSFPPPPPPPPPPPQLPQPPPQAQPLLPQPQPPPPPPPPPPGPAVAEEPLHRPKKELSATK

Row | Molecule | vesicle mean speed [1] | vesicle pause time [1] | eye degeneration phenotype, other polyQ genes [2] | eye depigmentation and degeneration phenotype [3] | mobility of the larvae [4] | interaction with Huntingtin N-terminal fragment (co-immunoprecipitation) [5] | interaction with N-terminal fragment lacking polyQ (co-immunoprecipitation) [6] | aggregation of polyQ-hHtt in salivary glands [7] | accumulation of polyQ-hHtt at the neuromuscular junctions (NMJs) [8] | distribution of NPY-GFP vesicles along the axons [8] | size of the polyQ-hHtt aggregates along axons [8] | quantification of aggregates by filtration [9] | viability and survival of adult flies [10] | aggregation of GFP-hHtt171aa-136Q (polyQ-hHtt) in HeLa cells [11] | first step of aggregation (nucleation) [12] | interaction with first 17 amino acids of Htt (co-immunoprecipitation) [13] | aggregate percentage identified by the GFP signal [14]
1 | AASSGVSTPGSAGHDIITEQPRS (not fully specified) [pep42, 23 aa peptide contained in pep4, positions 480 to 502 of wild-type hHtt; tested Myc-, Cherry- or GFP-tagged] | rescues | rescues | Only flies expressing polyQ-hHtt (67aa or 548aa) have normal eyes | normal eyes | completely rescued | interacts directly with the N-terminal fragment of Huntingtin | this interaction does not require the presence of the polyQ domain | absence of aggregates | non-accumulation of polyQ-hHtt at the NMJs | better distribution of the vesicles along the axons | reduction in the size of the polyQ-hHtt aggregates | confirmed by quantification | capable of rescuing | no longer forms aggregates | interferes with the first step of aggregation | successfully repeated | 
2 | AASSGVSTPGSAGHDIITEQPRSGGYGRKKRRQRRR (Pep42-TAT) [fusion peptide of Pep42 and TAT with 2 glycines inserted between] |  |  |  |  |  |  |  |  |  |  |  |  |  |  |  |  | decreases significantly; also recorded: protective activity of the fusion peptide is conserved
3 | B1 |  |  |  |  |  |  |  | absence of aggregates |  |  |  | confirmed by quantification |  | proved to be active; also recorded: inhibiting effect of polyQ-hHtt aggregation |  |  | 
